Data reported in patent publication EP0086092A2, “Antifungal compositions” (priority 1982, dated 1983).
Several values for one entry are separate records, joined by “and”; a condition that tells them apart may be missing. Equal entries are not always repeated. Marks after values point to notes of the source that are not given here.

Tests used:
Test in all cases: disc diffusion, zone of inhibition on seeded agar plates
Format in all cases: cell-based
[1] = tested on: Candida albicans B 3153A; details: Table IV-a; aculeacin A 0.40 µg, oleic acid 0 µg; 16-18 h, 28-37°C
Procedure: (§1) The antifungal activity of aculeacin A and the compositions of aculeacin A and fatty acids was measured by disc diffusion. Potentiation of antifungal activity was examined by three different methods employing: (1) a single concentration of aculeacin A and a single concentration of known fatty acids; '(2) various concentrations of aculeacin A with a single concentration of individual fatty acids; and (3) various concentrations of fatty acids with a single concentration of aculeacin A. The antifungal activities of aculeacin A and the fatty acids were separately checked as controls.
(§2) The antifungal effects of compositions containing a single amount of aculeacin A while varying the amounts. of oleic acid as the sodium salt were determined by utilizing seeded plates of Candida albicans strains B 311, BC 759 and B 3153A and measuring the zone of inhibition after 16-18 hours at 28-37°C. This test was also performed with linoleic acid and linolenic acid.
(§3) The seeded plates of Candida albicans strains B 311, BC 759, and B 3153A were prepared by inoculating 50 ml of trypticase soy broth (BBL) with one ml of the preserved frozen culture and incubating the inoculum at 37°C for 7 hours on a rotary shaker. Two milliliters of this culture were used to inoculate one liter of Sabouarud dextrose agar (Difco) at 50°C and 15 milliliters of the resultant medium poured into 150 mm petri-dishes.

[2] = tested on: Candida albicans BC 759; details: Table IV-a; aculeacin A 0.40 µg, oleic acid 0 µg; 16-18 h, 28-37°C
Procedure: as §1, §2, §3

[3] = tested on: Candida albicans B 311; details: 16-18 h; for Zone Size / Zone Size B 311: 28-37°C; for Zone Size Sabouarud Agar / Zone Size YNB agar: Table II, 37°C; for Zone Size YNB agar: lysine
Procedure: The antifungal activity of aculeacin A and the compositions of aculeacin A and fatty acids was measured by disc diffusion.
The effects of a number of fatty acids on the antifungal activity of aculeacin A were determined by utilizing seeded plates of Candida albicans B 311 in yeast nitrogen base (YNB) agar (Difco) with glucose as the carbon source. A composition containing one unit by weight of aculeacin A and 5 units of fatty acid or the sodium salt thereof was spotted on the seeded plates and the size of the zone of inhibition after 16-18 hours incubation at 28-37 °C was measured.
Additional fatty acids were tested to determine , if they increased the intrinsic activity of aculeacin A against C. albicans B 311 utilizing seeded plates of YNB agar (Difco) with lysine as the carbon source and seeded plates of Sabouarud dextrose agar (Difco). Compositions containg one µg of aculeacin A and various amounts of the fatty acid was spotted on the seeded plates and the size of the zone of inhibition after 16-18 hours incubation at 37 °C was measured.
The antifungal effects of compositions containing a single amount of oleic acid as the sodium salt while varying the amounts of aculeacin A were determined by utilizing seeded plates of Candida albicans B 311 in Sabouarud dextrose agar and measuring the zone of inhibition after 16-18 hours incubation at 28-37°C.
as §2, §3

Question: Which “Zone Size B 3153-A” value [1] does the source give for aculeacin A [reference compound] here?
Answer: Its value is 12 mm.

Question: And the “Zone Size BC 759” value [2]?
Answer: Its value is 13 mm.

Question: And the “Zone Size” value ([3]; Table I, YNB agar, glucose as carbon source, aculeacin A alone, no fatty acid)?
Answer: Its value is 15 mm.

Question: And the “Zone Size Sabouarud Agar” value ([3]; Sabouarud dextrose agar, aculeacin A 1 µg, no fatty acid)?
Answer: The value was 13 mm and 15 mm.

Question: And the “Zone Size YNB agar” value ([3]; YNB agar, aculeacin A 1 µg, no fatty acid)?
Answer: Its value is 15 mm and 16 mm.

Question: And the “Zone Size” value ([3]; Table III, Sabouarud dextrose agar, aculeacin A 0.312 µg, oleic acid 0 µg)?
Answer: Its value is “trace”.

Question: And the “Zone Size” value ([3]; Table III, Sabouarud dextrose agar, aculeacin A 0.625 µg, oleic acid 0 µg)?
Answer: The value was 10 mm.

Question: And the “Zone Size” value ([3]; Table III, Sabouarud dextrose agar, aculeacin A 1.25 µg, oleic acid 0 µg)?
Answer: The value was 14-16 mm.

Question: What about the “Zone Size” value ([3]; Table III, Sabouarud dextrose agar, aculeacin A 2.5 µg, oleic acid 0 µg) of the same compound?
Answer: Its value is 19 mm.

Question: And the “Zone Size B 311” value ([3]; Table IV-a, aculeacin A 0.40 µg, oleic acid 0 µg)?
Answer: Its value is 10 mm.

Question: What about the “Zone Size B 311” value ([3]; Tables IV-b, IV-c, aculeacin A 0.625 µg, fatty acid 0 µg) of the same compound?
Answer: The value was 16 mm.

Question: With CCCCC/C=C\C/C=C\C/C=C\C/C=C\CCCC(=O)O [Arachidonic Acid] as the compound, how does the “Zone Size Sabouarud Agar” value ([3]; Sabouarud dextrose agar, aculeacin A 0 µg, fatty acid 250 µg alone) read?
Answer: Its value is 0 mm.

Question: What about the “Zone Size Sabouarud Agar” value ([3]; Sabouarud dextrose agar, aculeacin A 0 µg, fatty acid 500 µg alone) of the same compound?
Answer: The value was 0 mm.

Question: What about the “Zone Size Sabouarud Agar” value ([3]; Sabouarud dextrose agar, aculeacin A 0 µg, fatty acid 1000 µg alone) of the same compound?
Answer: Its value is 0 mm.

Question: And the “Zone Size Sabouarud Agar” value ([3]; Sabouarud dextrose agar, composition of aculeacin A 1 µg + fatty acid 250 µg)?
Answer: The value was 20* mm.

Question: What about the “Zone Size Sabouarud Agar” value ([3]; Sabouarud dextrose agar, composition of aculeacin A 1 µg + fatty acid 500 µg) of the same compound?
Answer: The value was 20* mm.

Question: And the “Zone Size Sabouarud Agar” value ([3]; Sabouarud dextrose agar, composition of aculeacin A 1 µg + fatty acid 1000 µg)?
Answer: The value was 20* mm.

Question: And the “Zone Size YNB agar” value ([3]; YNB agar, aculeacin A 0 µg, fatty acid 250 µg alone)?
Answer: Its value is 0 mm.

Question: And the “Zone Size YNB agar” value ([3]; YNB agar, aculeacin A 0 µg, fatty acid 500 µg alone)?
Answer: Its value is 0 mm.

Question: What about the “Zone Size YNB agar” value ([3]; YNB agar, aculeacin A 0 µg, fatty acid 1000 µg alone) of the same compound?
Answer: The value was 0 mm.

Question: What about the “Zone Size YNB agar” value ([3]; YNB agar, composition of aculeacin A 1 µg + fatty acid 250 µg) of the same compound?
Answer: The value was 20 mm.

Question: And the “Zone Size YNB agar” value ([3]; YNB agar, composition of aculeacin A 1 µg + fatty acid 500 µg)?
Answer: The value was 20 mm.

Question: What about the “Zone Size YNB agar” value ([3]; YNB agar, composition of aculeacin A 1 µg + fatty acid 1000 µg) of the same compound?
Answer: The value was 26 mm.
